Assay results taken from patent US8871681B2, “Herbicidal compositions comprising 4-amino-3-chloro-5-fluoro-6-(4-chloro-2-fluoro-3-methoxyphenyl) pyridine-2-carboxylic acid or a derivative thereof and certain sulfonylureas” (Dow AgroSciences LLC, priority 2012, dated 2014).

Tested on: ECHCG (Echinochloa crus-galli, barnyardgrass)
Assay: In-water applied weed control, transplanted paddy rice, greenhouse (Example II)
Format: in vivo, Echinochloa crus-galli (L.) Beauv.
Method: Weed seeds or nutlets of the desired test plant species were planted in puddled soil (mud) prepared by mixing a shredded, non-sterilized mineral soil (50.5 percent silt, 25.5 percent clay, and 24 percent sand, with a pH of about 7.6 and an organic matter content of about 2.9 percent) and water at a 1:1 volumetric ratio. The prepared mud was dispensed in 365 mL aliquots into 16-ounce (oz.) non-perforated plastic pots with a surface area of 86.59 square centimeters (cm^2) leaving a headspace of 3 centimeters (cm) in each pot. Rice seeds were planted in Sun Gro MetroMix® 306 planting mixture, which typically has a pH of 6.0 to 6.8 and an organic matter content of about 30 percent, in plastic plug trays. Seedlings at the second or third leaf stage of growth were transplanted into 860 mL of mud contained in 32-oz. non-perforated plastic pots with a surface area of 86.59 cm^2 4 days prior to herbicide application. The paddy was created by filling the headspace of the pots with 2.5 to 3 cm of water. When required to ensure good germination and healthy plants, a fungicide treatment and/or other chemical or physical treatment was applied. The plants were grown for 4-22 days in a greenhouse with an approximate 14 h photoperiod which was maintained at about 29′C during the day and 26° C. during the night. Nutrients were added as Osmocote® (19:6:12, N:P:K+minor nutrients) at 2 g per 16-oz. pot and 4 g per 32-oz. pot. Water was added on a regular basis to maintain the paddy flood, and supplemental lighting was provided with overhead metal halide 1000-Watt lamps as necessary. The plants were employed for testing when they reached the first through fourth true leaf stage.
Treatments consisted of the acid or esters of 4-amino-3-chloro-5-fluoro-6-(4-chloro-2-fluoro-3-methoxy-phenyl)pyridine-2-carboxylic acid (compound A) each formulated as an SC and various herbicidal components alone and in combination. Forms of compound A were applied on an acid equivalent basis.
Other herbicidal components were applied on an active ingredient basis and included acetolactate synthase (ALS)-inhibiting herbicides (sulfonylurea chemical class), azimsulfuron formulated as Gulliver®, bensulfuron-methyl formulated as Londax® 60DF, cyclosulfamuron (technical grade materail), ethoxysulfuron formulated as Sunrice® 15 WDG, flucetosulfuron formulated as Sukedachi® 1KG G, imazosulfuron formulated as Brazzos®, metsulfuron-methyl formulated as Lorate®, nicosulfuron formulated as Accent®, orthosulfamuron formulated as Strada® WG, propyrisulfuron formulated as Zeta One®, and rimsulfuron formulated as Matrix® WG.
Treatment requirements for each compound or herbicidal component were calculated based upon the rates being tested, the concentration of active ingredient or acid equivalent in the formulation, an application volume of 2 mL per component per pot, and an application area of 86.59 cm^2 per pot.
For formulated compounds, a measured amount was placed in an individual 100 or 200 mL glass vial and was dissolved in a volume of 1.25% (v/v) Agri-Dex® crop oil concentrate to obtain application solutions.
For technical grade compounds, a weighed amount was placed in an individual 100 to 200 mL glass vial and was dissolved in a volume of acetone to obtain concentrated stock solutions. […]

## COc1c(Cl)ccc(-c2nc(C(=O)OCc3ccccc3)c(Cl)c(N)c2F)c1F [Compound A Benzyl Ester]
Table 50, 4.38 gae/ha alone
  Visual Weed Control (%) - 20 DAA ECHCG Obs: 15%
Table 50, 8.75 gae/ha alone
  Visual Weed Control (%) - 20 DAA ECHCG Obs: 20%
Table 50, 17.5 gae/ha alone
  Visual Weed Control (%) - 20 DAA ECHCG Obs: 40%
